According to PubChem BioAssay AID1919007 (Molecular Pharmacology Branch, DTP, NCI, 2023):

System: A498 complex spheroids with HUVEC/MSC, growth
Assay: Anticancer human tumor A498 cell line growth inhibition [AhR];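 also: seven day exposure starting three days after spheroid seeding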;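 as to viability, T/C: luminescence signal used as a surrogate for viable cells; luminescence viability scaled so 100% equals DMSO vehicle wells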
Conditions: for IC50: curve of first compound; for viability, T/C: stronger effect = lower value
Summary of the method: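 Spheroids combined tumor cells with HUVEC endothelial cells and human MSCs as stroma. AhR antagonists were paired with standard or investigational drugs, each dosed in half-log steps down from near clinical Cmax, or from 10 microM where Cmax was unknown.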

[1] = second compound 0.1 µM, first compound 0.0316 µM
[2] = second compound 0.1 µM, first compound 0.1 µM
[3] = second compound 0.1 µM, first compound 0.316 µM
[4] = second compound 0.1 µM, first compound 1 µM
[5] = second compound 0.1 µM, first compound 3.16 µM
[6] = second compound 0.1 µM, first compound 10 µM
[7] = second compound 0.316 µM, first compound 0.0316 µM
[8] = second compound 0.316 µM, first compound 0.1 µM
[9] = second compound 0.316 µM, first compound 0.316 µM
[10] = second compound 0.316 µM, first compound 1 µM
[11] = second compound 0.316 µM, first compound 3.16 µM
[12] = second compound 0.316 µM, first compound 10 µM
[13] = second compound 1 µM, first compound 0.0316 µM
[14] = second compound 1 µM, first compound 0.1 µM
[15] = second compound 1 µM, first compound 0.316 µM
[16] = second compound 1 µM, first compound 1 µM
[17] = second compound 1 µM, first compound 3.16 µM
[18] = second compound 1 µM, first compound 10 µM
[19] = second compound 3.16 µM, first compound 0.0316 µM
[20] = second compound 3.16 µM, first compound 0.1 µM
[21] = second compound 3.16 µM, first compound 0.316 µM
[22] = second compound 3.16 µM, first compound 1 µM
[23] = second compound 3.16 µM, first compound 3.16 µM
[24] = second compound 3.16 µM, first compound 10 µM
[25] = second compound 10 µM, first compound 0.0316 µM
[26] = second compound 10 µM, first compound 0.1 µM
[27] = second compound 10 µM, first compound 0.316 µM
[28] = second compound 10 µM, first compound 1 µM
[29] = second compound 10 µM, first compound 3.16 µM
[30] = second compound 10 µM, first compound 10 µM

## CC(C)c1c(-c2ccccc2)nc2c(C#N)c[nH]n2c1=O + Cc1ccccc1N=Nc1ccc(NC(=O)c2ccnn2C)c(C)c1
Second compound 0.1 µM
  IC50: > 10000 nM
Second compound 0.316 µM
  IC50: > 10000 nM
Second compound 1 µM
  IC50: > 10000 nM
Second compound 3.16 µM
  IC50: > 10000 nM
Second compound 10 µM
  IC50: > 10000 nM
[1]
  viability, T/C: 78.9%
[2]
  viability, T/C: 84.9%
[3]
  viability, T/C: 83.2%
[4]
  viability, T/C: 81.8%
[5]
  viability, T/C: 80.2%
[6]
  viability, T/C: 84.2%
[7]
  viability, T/C: 87.7%
[8]
  viability, T/C: 88.5%
[9]
  viability, T/C: 89.7%
[10]
  viability, T/C: 85.9%
[11]
  viability, T/C: 82.8%
[12]
  viability, T/C: 89.5%
[13]
  viability, T/C: 80.1%
[14]
  viability, T/C: 74.6%
[15]
  viability, T/C: 86.8%
[16]
  viability, T/C: 78.1%
[17]
  viability, T/C: 76.7%
[18]
  viability, T/C: 77.5%
[19]
  viability, T/C: 77.2%
[20]
  viability, T/C: 79.2%
[21]
  viability, T/C: 79.6%
[22]
  viability, T/C: 76.8%
[23]
  viability, T/C: 72.7%
[24]
  viability, T/C: 78.1%
[25]
  viability, T/C: 80.2%
[26]
  viability, T/C: 81.7%
[27]
  viability, T/C: 74.3%
[28]
  viability, T/C: 81%
[29]
  viability, T/C: 71.8%
[30]
  viability, T/C: 74.1%

## CC1COCCN1c1cc(-c2ccnn2C)c2ccnc(-c3ccn[nH]3)c2n1 (stereo not given) + Cc1ccccc1N=Nc1ccc(NC(=O)c2ccnn2C)c(C)c1
Second compound 0.1 µM
  IC50: 21.9 nM
Second compound 0.316 µM
  IC50: 50.3 nM
Second compound 1 µM
  IC50: 84.9 nM
Second compound 3.16 µM
  IC50: 97 nM
Second compound 10 µM
  IC50: 84.7 nM
Second compound 0.1 µM, first compound 0.00316 µM
  viability, T/C: 71.7%
Second compound 0.1 µM, first compound 0.01 µM
  viability, T/C: 54.4%
[1]
  viability, T/C: 49.7%
[2]
  viability, T/C: 34.2%
[3]
  viability, T/C: 25.1%
[4]
  viability, T/C: 15.7%
Second compound 0.316 µM, first compound 0.00316 µM
  viability, T/C: 71.2%
Second compound 0.316 µM, first compound 0.01 µM
  viability, T/C: 86.6%
[7]
  viability, T/C: 58.8%
[8]
  viability, T/C: 33.9%
[9]
  viability, T/C: 17.8%
[10]
  viability, T/C: 17.8%
Second compound 1 µM, first compound 0.00316 µM
  viability, T/C: 87.5%
Second compound 1 µM, first compound 0.01 µM
  viability, T/C: 94.8%
[13]
  viability, T/C: 74.7%
[14]
  viability, T/C: 47.4%
[15]
  viability, T/C: 16.4%
[16]
  viability, T/C: 12.9%
Second compound 3.16 µM, first compound 0.00316 µM
  viability, T/C: 94.7%
Second compound 3.16 µM, first compound 0.01 µM
  viability, T/C: 87.7%
[19]
  viability, T/C: 84.3%
[20]
  viability, T/C: 47.9%
[21]
  viability, T/C: 20.8%
[22]
  viability, T/C: 11.1%
Second compound 10 µM, first compound 0.00316 µM
  viability, T/C: 90.1%
Second compound 10 µM, first compound 0.01 µM
  viability, T/C: 87.1%
[25]
  viability, T/C: 69.9%
[26]
  viability, T/C: 47.6%
[27]
  viability, T/C: 23.1%
[28]
  viability, T/C: 13.9%

## COc1ccc([C@@H](O)c2cc(-c3ncnc4cc(N5CCOCC5)ccc34)c(F)cc2Cl)nn1 + Cc1ccccc1N=Nc1ccc(NC(=O)c2ccnn2C)c(C)c1
Second compound 0.1 µM
  IC50: 252 nM
Second compound 0.316 µM
  IC50: 562 nM
Second compound 1 µM
  IC50: 650 nM
Second compound 3.16 µM
  IC50: 666 nM
Second compound 10 µM
  IC50: 630 nM
[1]
  viability, T/C: 85.8%
[2]
  viability, T/C: 58%
[3]
  viability, T/C: 40.8%
[4]
  viability, T/C: 42.9%
[5]
  viability, T/C: 18.1%
[6]
  viability, T/C: 9.01%
[7]
  viability, T/C: 71.1%
[8]
  viability, T/C: 90.5%
[9]
  viability, T/C: 54.8%
[10]
  viability, T/C: 41.5%
[11]
  viability, T/C: 11.4%
[12]
  viability, T/C: 9.4%
[13]
  viability, T/C: 85.7%
[14]
  viability, T/C: 84%
[15]
  viability, T/C: 81.2%
[16]
  viability, T/C: 31.4%
[17]
  viability, T/C: 10.2%
[18]
  viability, T/C: 6.98%
[19]
  viability, T/C: 91.9%
[20]
  viability, T/C: 92.9%
[21]
  viability, T/C: 71.1%
[22]
  viability, T/C: 38.5%
[23]
  viability, T/C: 12.6%
[24]
  viability, T/C: 6.52%
[25]
  viability, T/C: 83.4%
[26]
  viability, T/C: 83.2%
[27]
  viability, T/C: 67.2%
[28]
  viability, T/C: 37.5%
[29]
  viability, T/C: 17.5%
[30]
  viability, T/C: 7.07%

## O=C(C=Cn1cnc(-c2cc(C(F)(F)F)cc(C(F)(F)F)c2)n1)NNc1cnccn1 + Cc1ccccc1N=Nc1ccc(NC(=O)c2ccnn2C)c(C)c1
Second compound 0.1 µM
  IC50: 97.1 nM
Second compound 0.316 µM
  IC50: 55.1 nM
Second compound 1 µM
  IC50: 51.9 nM
Second compound 3.16 µM
  IC50: 43.5 nM
Second compound 10 µM
  IC50: 61.8 nM
Second compound 0.1 µM, first compound 0.00949 µM
  viability, T/C: 88.7%
Second compound 0.1 µM, first compound 0.03 µM
  viability, T/C: 77.2%
Second compound 0.1 µM, first compound 0.0949 µM
  viability, T/C: 47.9%
Second compound 0.1 µM, first compound 0.3 µM
  viability, T/C: 30.3%
Second compound 0.1 µM, first compound 0.949 µM
  viability, T/C: 19.8%
Second compound 0.1 µM, first compound 3 µM
  viability, T/C: 13.3%
Second compound 0.316 µM, first compound 0.00949 µM
  viability, T/C: 74.7%
Second compound 0.316 µM, first compound 0.03 µM
  viability, T/C: 62.4%
Second compound 0.316 µM, first compound 0.0949 µM
  viability, T/C: 39.1%
Second compound 0.316 µM, first compound 0.3 µM
  viability, T/C: 21.9%
Second compound 0.316 µM, first compound 0.949 µM
  viability, T/C: 19.1%
Second compound 0.316 µM, first compound 3 µM
  viability, T/C: 16.2%
Second compound 1 µM, first compound 0.00949 µM
  viability, T/C: 56.9%
Second compound 1 µM, first compound 0.03 µM
  viability, T/C: 75.9%
Second compound 1 µM, first compound 0.0949 µM
  viability, T/C: 31.9%
Second compound 1 µM, first compound 0.3 µM
  viability, T/C: 17.9%
Second compound 1 µM, first compound 0.949 µM
  viability, T/C: 17.6%
Second compound 1 µM, first compound 3 µM
  viability, T/C: 20.2%
Second compound 3.16 µM, first compound 0.00949 µM
  viability, T/C: 70.5%
Second compound 3.16 µM, first compound 0.03 µM
  viability, T/C: 62%
Second compound 3.16 µM, first compound 0.0949 µM
  viability, T/C: 24.6%
Second compound 3.16 µM, first compound 0.3 µM
  viability, T/C: 29.8%
Second compound 3.16 µM, first compound 0.949 µM
  viability, T/C: 21.4%
Second compound 3.16 µM, first compound 3 µM
  viability, T/C: 19.4%
Second compound 10 µM, first compound 0.00949 µM
  viability, T/C: 73.8%
Second compound 10 µM, first compound 0.03 µM
  viability, T/C: 68.4%
Second compound 10 µM, first compound 0.0949 µM
  viability, T/C: 37.8%
Second compound 10 µM, first compound 0.3 µM
  viability, T/C: 29.6%
Second compound 10 µM, first compound 0.949 µM
  viability, T/C: 20.3%
Second compound 10 µM, first compound 3 µM
  viability, T/C: 18.8%
